From patent US20050288347A1, “Certain triazole-based compounds, compositions, and uses thereof” (priority 2004, published 2005) come the findings set out here.

“Also recorded” adds a separate entry of the source.

For one assay, the target named is protein kinase. Kind of assay: HTS ATP-utilizing enzyme assay, off-chip mobility-shift format (Caliper HTS 250). To be noted: kinase(s) for which the compound exhibits protein kinase inhibitory activity; test compound 10 μM; active = greater than three-sigma from the mean activity of inactive compounds. The format is biochemical, human. From the text:
The following procedures describe the reagent and plate preparation for a HTS of an ATP-utilizing enzyme, such as a protein kinase, run in an off-chip mobility-shift assay format. The following provides an HTS protocol for running a protein kinase HTS screen on a Caliper HTS 250 microfluidics system. The following parameters are dependent on the protein kinase used and can be determined by one skilled in the art as part of a typical assay development process. For example, the peptide substrate used can be identified from the current literature, by screening a peptide library of potential protein kinase substrates, or by other applicable means accepted in the field.
The following table provides typical screen assay parameters appropriate for a Caliper HTS 250 microfluidics system.
The reagents and buffers listed in the following table are generally applicable for developing and running an HTS screen on a human protein kinase using the Caliper HTS 250 system.
The following reagents were prepared using the previously described buffers.
A 2× Master Buffer solution was prepared by combining 200 mL of 1 M HEPES, pH 7.5, 2 mL of 10% Triton X-100, 20 mL of 10% BSA, and 778 mL of H2O.
Assays to determine the kinase inhibitory activity of chemical entities of the present disclosure were performed using a Caliper HTS 250 microfluidics device, Greiner U-bottom assay plates, a Multidrop for transfer of reagents, and Biomek FX (AMNCBM03) software. Initially, 2.4 μL of a 1 mM solution of a test compound in 100% DMSO was added to a well of the Greiner U-bottom plate. A single Greiner U-bottom plate having 24×16 wells could include multiple test compounds. […] Using the Biomek FX, 10 μL of 0.5 M EDTA was added by the span-8 to wells, indicated as 100% Control and 2.4 μL of 100% DMSO was added by the span-8 to wells, indicated as 0% Control. […] The total reaction volume in each well was 25 μL, and the concentration of the test compound was 10 μM. The assay plate was incubated for 2.5 hrs at 20° C. to 22° C. […] The inhibition of the ATP-utilizing enzyme, such as a particular protein kinase, was determined by measuring the ratio of the peptide substrate to phosphorylated product for each well of the assay plate using the Caliper HTS 250 system.
The use of three-sigma statistical limits represents a conservative method for declaring potential hits among targets. The three-sigma activity, as well as the mean population activity, can be different for each target enzyme.
As for `COc1ccc(-c2nnc(SCC(=O)N3CCOCC3)n2-c2ccccc2)cc1OC`, the Kinase entry is “AKT1”.

Consider `CCCOc1ccc(CNC(=O)CSc2nnc(-c3ccc(OC)c(OC)c3)n2C)cc1`, for which the Kinase result is reported as “AURORA-A; also recorded: DYRK2”.

For `COc1ccc(NCc2nnc(SCC(=O)Nc3ccc(C(C)=O)cc3)n2-c2ccc(OC)cc2)cc1`, the Kinase entry was “PDGFRR-α and FYN and c-TAK1”.

As for `Cc1ccc(NCc2nnc(SCC(N)=O)n2Cc2ccco2)c(C)c1`, the Kinase entry was “PDGFRR-α”.

For the compound `COc1ccc(-n2c(SCC(=O)N3CCC(C)CC3)nnc2-c2ccccc2)cc1`, the Kinase entry is listed as “DAPK1”.

On to `Cn1c(SCC(=O)N2CCCC2)nnc1-c1ccc(S(=O)(=O)N2CCOCC2)cc1`, for which the Kinase entry is “AURORA-A”.

For the compound `Cn1c(SCC(=O)N2CCOCC2)nnc1-c1ccc(O)cc1`, the Kinase entry is listed as “AURORA-A”.

Consider `COc1ccc(NCc2nnc(S)n2-c2ccc(OC)cc2)cc1`, for which the Kinase entry was “PDGFRR-α; also recorded: AURORA-A; also recorded: GSK3-α”.

`C=CCn1c(S)nnc1-c1cc(OC)c(OC)c(OC)c1` [4-allyl-5-(3,4,5-trimethoxyphenyl)-4H-1,2,4-triazole-3-thiol]: the Kinase result is reported as “GSK3-β; also recorded: GSK3-α”.

Take `O=C(CSc1nnc(-c2ccc(O)cc2)n1-c1ccccc1)CC(=O)Nc1ccccc1`: the Kinase result was “AURORA-A; also recorded: GSK3-α”.

With `CCn1c(COc2cccc3ccccc23)nnc1SCC#N`, the Kinase entry is on record as “AURORA-A”.

With `COCCn1c(SCC(=O)O)nnc1-c1cc2c(C)nn(-c3ccccc3)c2s1`, the Kinase result is recorded as “AKT1”.

Regarding `Cc1ccc(-n2c(SCC(=O)O)nnc2-c2cccnc2)cc1` [2-(5-(pyridin-3-yl)-4-p-tolyl-4H-1,2,4-triazol-3-ylthio)acetic acid], the Kinase entry was “AURORA-A”.

`CCn1c(S)nnc1COc1ccc(OC)cc1` [4-ethyl-5-((4-methoxyphenoxy)methyl)-4H-1,2,4-triazole-3-thiol]: the Kinase entry is recorded as “GSK3-β; also recorded: GSK3-α; also recorded: CDK2-cyclinE”.

As for `Cc1ccc(S(=O)(=O)Nc2ccc(-c3nnc(S)n3C)cc2)cc1`, the Kinase entry was “AURORA-A; also recorded: CDK2-cyclinA; also recorded: CHEK2”.

In the case of `CCn1c(SCC(=O)Nc2sc(C)c(C)c2C#N)nnc1-c1ccc(S(=O)(=O)N2CCOCC2)cc1`, the Kinase entry is given as “DAPK1”.

Turning to `COc1ccc(NCc2nnc(SCC(=O)Nc3ccc(C(C)=O)cc3)n2C)cc1`, the Kinase entry was “PDGFRR-α and FLT-3 and FYN”.

With `Cn1c(S)nnc1COc1cccc2ccccc12` [4-methyl-5-((naphthalen-1-yloxy)methyl)-4H-1,2,4-triazole-3-thiol], the Kinase result is “GSK3-β; also recorded: GSK3-α”.

Turning to `CCn1c(Cc2ccccc2)nnc1SCC(=O)N1CCCc2ccccc21`, the Kinase result is given as “FYN”.

In the case of `Oc1cc2ccccc2cc1-c1nnc(S)n1Cc1ccco1` [3-(4-(furan-2-ylmethyl)-5-mercapto-4H-1,2,4-triazol-3-yl)naphthalen-2-ol], the Kinase entry was “AURORA-A”.

As for `C=CCn1c(SCC(=O)O)nnc1-c1ccc([N+](=O)[O-])cc1` [2-(4-allyl-5-(4-nitrophenyl)-4H-1,2,4-triazol-3-ylthio)acetic acid], the Kinase entry is given as “GSK3-β”.

As for `COc1ccc(NCc2nnc(SCC(=O)O)n2-c2ccc(C)cc2)cc1`, the Kinase entry is recorded as “FYN”.

For the compound `CCCn1c(SCC(=O)c2ccc3c(c2)OCCO3)nnc1-c1ccco1`, the Kinase entry is reported as “DYRK2”.

For the compound `COc1ccc(-n2c(SCC(=O)O)nnc2-c2ccc(NC(=O)c3ccccc3)cc2)cc1`, the Kinase result was “CHEK2”.

For `CCN(CC)S(=O)(=O)c1ccc(-c2nnc(SCC(=O)Nc3nccs3)n2CC)cc1`, the Kinase entry is recorded as “GSK3-α; also recorded: GSK3-β”.

Turning to `CCn1c(COc2cccc3ccccc23)nnc1SCC(=O)NCC1CCCO1` (centres unmarked), the Kinase entry is “FYN”.

Regarding `Cc1cccc(-c2nnc(SCC(=O)Nc3cccc(C(F)(F)F)c3)n2C)c1`, the Kinase result is “CDK2-cyclinE”.

On to `Nc1c(Cl)cc(-n2c(S)nnc2-c2ccccc2)cc1Cl` [4-(4-amino-3,5-dichlorophenyl)-5-phenyl-4H-1,2,4-triazole-3-thiol], for which the Kinase result is given as “GSK3-β; also recorded: GSK3-α; also recorded: CDK2-cyclinE”.

Consider `O=C(CSc1nncn1-c1cccnc1)Nc1cccc(C(=O)O)c1` [3-(2-(4-(pyridin-3-yl)-4H-1,2,4-triazol-3-ylthio)acetamido)benzoic acid], for which the Kinase entry is reported as “AURORA-A”.

For the compound `CCn1c(SCC(=O)Nc2ccccc2)nnc1-c1ccc(O)cc1`, the Kinase entry is “CHEK2”.

Staying with this assay, now noted: test compound 10 μM; active = activity greater than three-sigma from the mean of the predominately inactive population for that enzyme.
On to `CCn1c(SCc2ccccc2Cl)nnc1-c1cc(-c2ccccc2)nc2ccccc12` [4-(5-(2-chlorobenzylthio)-4-ethyl-4H-1,2,4-triazol-3-yl)-2-phenylquinoline], for which the “protein kinase against which the compound exhibits inhibitory activity (Table 3)” value is given as “CHEK2”.

Consider `COc1ccc(-n2c(SCc3nnc(-c4ccccc4)o3)nnc2-c2ccncc2)cc1`, for which the “protein kinase against which the compound exhibits inhibitory activity (Table 3)” value is reported as “GSK3-α”.

In the case of `CCSc1nnc(-c2ccc([N+](=O)[O-])cc2)n1C` [3-(ethylthio)-4-methyl-5-(4-nitrophenyl)-4H-1,2,4-triazole], the “protein kinase against which the compound exhibits inhibitory activity (Table 3)” value is “PDGFRR-α and FYN”.

Consider `Cc1cc(C)nc(SCc2nnc(SCC(=O)NNC(=O)c3ccccc3O)n2-c2ccccc2)n1`, for which the “protein kinase against which the compound exhibits inhibitory activity (Table 3)” value was “FYN and SRC and HCK”.

As for `CCOCCSc1nnc(-c2ccc(Cl)c(Cl)c2)[nH]1` [3-(3,4-dichlorophenyl)-5-(2-ethoxyethylthio)-4H-1,2,4-triazole], the “protein kinase against which the compound exhibits inhibitory activity (Table 3)” value is listed as “AURORA-A; also recorded: GSK3-β; also recorded: GSK3-α”.

Consider `COc1ccccc1-n1c(SCc2csc(C)n2)nnc1-c1cccc(Cl)c1`, for which the “protein kinase against which the compound exhibits inhibitory activity (Table 3)” value is given as “ROCK2”.

Turning to `Cn1c(SCc2ccc(Cl)cc2)nnc1-c1cccnc1` [3-(5-(4-chlorobenzylthio)-4-methyl-4H-1,2,4-triazol-3-yl)pyridine], the “protein kinase against which the compound exhibits inhibitory activity (Table 3)” value was “CHEK2”.

Turning to `O=C1c2ccccc2C(=O)N1CCSc1nnc(-c2ccccc2)[nH]1` [2-(2-(5-phenyl-4H-1,2,4-triazol-3-ylthio)ethyl)isoindoline-1,3-dione], the “protein kinase against which the compound exhibits inhibitory activity (Table 3)” value is given as “AURORA-A; also recorded: GSK3-β; also recorded: GSK3-α”.

On to `Cc1cccc(-c2nnc(SCC3CCCCC3)[nH]2)c1` [3-(cyclohexylmethylthio)-5-m-tolyl-4H-1,2,4-triazole], for which the “protein kinase against which the compound exhibits inhibitory activity (Table 3)” value was “AURORA-A; also recorded: c-TAK1”.

`CCn1c(COc2cccc3ccccc23)nnc1SCCC(=O)O`: the “protein kinase against which the compound exhibits inhibitory activity (Table 3)” value is given as “AURORA-A”.

`O=C(O)CCSc1nnc(-c2ccc(O)cc2)n1Cc1ccccc1` [3-(4-benzyl-5-(4-hydroxyphenyl)-4H-1,2,4-triazol-3-ylthio)propanoic acid]: the “protein kinase against which the compound exhibits inhibitory activity (Table 3)” value is reported as “GSK3-β; also recorded: GSK3-α”.

Consider `Clc1ccc(CSc2nnc(-c3ccncc3)n2Cc2ccco2)c(Cl)c1`, for which the “protein kinase against which the compound exhibits inhibitory activity (Table 3)” value is “MSK2 and MSK1 and AKT3”.

Take `CCn1c(SCc2ccc(C(C)(C)C)cc2)nnc1-c1cccnc1` [3-(5-(4-tert-butylbenzylthio)-4-ethyl-4H-1,2,4-triazol-3-yl)pyridine]: the “protein kinase against which the compound exhibits inhibitory activity (Table 3)” value is “MAPKAPK-2”.

Consider `CCSc1nnc(-c2ccc(O)cc2)n1Cc1ccccc1` [4-(4-benzyl-5-(ethylthio)-4H-1,2,4-triazol-3-yl)phenol], for which the “protein kinase against which the compound exhibits inhibitory activity (Table 3)” value is recorded as “GSK3-β; also recorded: GSK3-α”.

For the compound `c1ccc(CCSc2nnc(-c3ccc(-c4ccccc4)cc3)[nH]2)cc1` [3-(biphenyl-4-yl)-5-(phenethylthio)-4H-1,2,4-triazole], the “protein kinase against which the compound exhibits inhibitory activity (Table 3)” value is “AURORA-A”.

As for `Cc1cccc(-c2nnc(SCCN3CCOCC3)[nH]2)c1` [4-(2-(5-m-tolyl-4H-1,2,4-triazol-3-ylthio)ethyl)morpholine], the “protein kinase against which the compound exhibits inhibitory activity (Table 3)” value was “AURORA-A; also recorded: GSK3-β; also recorded: GSK3-α”.

In the case of `O=c1[nH]c(CSc2nnc(-c3ccccc3O)n2CCc2ccccc2)nc2ccccc12`, the “protein kinase against which the compound exhibits inhibitory activity (Table 3)” value is “AKT1”.

`Oc1ccc(-c2nnc(SCCN3CCCCC3)n2Cc2ccco2)cc1`: the “protein kinase against which the compound exhibits inhibitory activity (Table 3)” value is “GSK3-α”.

Regarding `Clc1cccc(NCc2nnc(SCc3ccccc3Cl)n2-c2ccccc2)c1`, the “protein kinase against which the compound exhibits inhibitory activity (Table 3)” value is “LCK”.

With `COc1ccccc1-n1c(SCCO)nnc1-c1cccc(Cl)c1` [2-(5-(3-chlorophenyl)-4-(2-methoxyphenyl)-4H-1,2,4-triazol-3-ylthio)ethanol], the “protein kinase against which the compound exhibits inhibitory activity (Table 3)” value is recorded as “ROCK2”.
